Assay results reported in patent US6426068B1, “Therapeutic uses of heterologous superoxide dismutase (HSD), and method for selecting said HSD” (Fractales Biotech, priority 1998, dated 2002).

B1: Mn—SOD of E. coli: manganese SOD of E. coli (protein, UniProt P00448 2-206, looked up)
Superoxide dismutase [Mn]: SYTLPSLPYAYDALEPHFDKQTMEIHHTKHHQTYVNNANAALESLPEFANLPVEELITKLDQLPADKKTVLRNNAGGHANHSLFWKGLKKGTTLQGDLKAAIERDFGSVDNFKAEFEKAAASRFGSGWAWLVLKGDKLAVVSTANQDSPLMGEAISGASGFPIMGLDVWEHAYYLKFQNRRPDYIKEFWNVVNWDEAAARFAAKK
B2: yeast Cu—SOD: yeast Cu—SOD (protein, UniProt P00445 2-154, looked up)
Superoxide dismutase [Cu-Zn]: VQAVAVLKGDAGVSGVVKFEQASESEPTTVSYEIAGNSPNAERGFHIHEFGDATNGCVSAGPHFNPFKKTHGAPTDEVRHVGDMGNVKTDENGVAKGSFKDSLIKLIGPTSVVGRSVVIHAGQDDLGKGDTEESLKTGNAGPRPACGVIGLTN

Columns and labels:
[1] = test system: human macrophages; assay: Apoptosis of human macrophages with β-amyloid or MPTP; type: cell-based; conditions: 10 μg/ml, 48 hours, FIGS. 12 and 13
[2] = test system: human macrophages; assay: TNF-α production by human macrophages with β-amyloid or MPTP; conditions: 10 μg/ml, 48 hours, FIGS. 12 and 13
Experimental: The CLCs are isolated from 23 healthy individuals, under the same conditions as those set out above. The adherent cell populations are obtained by incubating the CLCs (1×10^7 cells/ml) either in Petri dishes (Nunc) or in 6-well culture plates (Nunc) for 30 min at 37° C. in an RPMI 1640 medium supplemented with foetal calf serum at 10% (v/v) . The monocytes are then recovered by scraping the plates after adding a cold solution of PBS containing 1 mM EDTA. Cell preparations which comprise more than 85% of viable macrophages are estimated by Trypan blue exclusion and staining with a nonspecific esterase.
The macrophages are cultured at a final concentration of 2×10^6 cells/ml in 12- or 24-well plastic culture plates (Nunc) and in an Iscove medium supplemented with 100 U/ml of penicillin, 100 μg/ml of streptomycin and 5% of foetal calf serum.
The cells are incubated for 48 hours at 37° C. in a humid atmosphere (100%) containing 95% air and 5% CO2, in the presence of absence of 10 μg/ml of β-amyloid or MPTP.
The cell supernatants are recovered for measuring the TNF and the nitrites, while apoptosis is evaluated directly on the cells.

[3] = test system: Mn—SOD; assay: Endogenous SOD (dismutase) activity of U937 cells after exogenous SOD; type: cell-based, human; conditions: SOD 30 U/ml, FIG. 2
Experimental: U937 cells, untreated or treated with HIV-Tat protein, in the presence or absence of the abovementioned SODs, are lysed in a detergent buffer comprising: 10 mM Tris-HCl pH 7.4, 0.1% of SDS, 1% of Nonidet P-40, 10 μg/ml of leupeptin, 100 μg/ml of PMSF and 2 μg/ml of aprotinin, by heating at 85° C. for 5 min. The lysate is then briefly sonicated (3×30 sec).
The total superoxide dismutase activity is measured on the sonicated lysates obtained as described above by its capacity to inhibit the reduction of ferrocytochrome c by the superoxide radicals produced by the xanthin oxidase/xanthine system (McCord. J. M., 1969, J. Biol. Chem. 244, 6049). One unit of superoxide dismutase is defined as the amount which inhibits 50% of the reduction of cytochrome c at room temperature and at pH 7.8.

[4] = test system: glutathione peroxidase (GPx), Mn—SOD, inducible NO synthase (iNOs); assay: Immuno-redox activity of HSD1/anti-HSD1 immune complexes in U937 and U1 cells; conditions: noninfected U937 and U1 cells; HSD1 10 μg/ml (30 U/ml), anti-HSD1 antibodies 10 μg/ml; FIG. 16
Experimental: U937 cells which are chronically infected with HIV-1 (U1 cells), and which have a low p24 production level (<250 pg/10^5 cells/ml in a 3-day supernatant) are cultured in an RPMI medium supplemented with L-glutamine, penicillin, streptomycin and foetal calf serum at 10% (Gibco products). They are used for the production of p24, and to evaluate apoptosis.

[5] = test system: Mn—SOD; assay: Endogenous SOD expression in U937 cells (SDS-PAGE / immunoblot); type: cell-based, human; conditions: HIV-Tat activated U937 cells (10 μg/ml Tat); SOD 30 U/ml, 24 hours; FIG. 1
[6] = test system: glutathione peroxidase (Gpx); assay: Glutathione peroxidase transcription in U937 cells (RT-PCR); conditions: FIG. 3
Experimental: The human promonocytic leukaemia cell line U937 is cultured at a final concentration of 2×10^5 cells/ml in an Iscove medium enriched with 100 U/ml of penicillin, 100 μg/ml of streptomycin and 5% of foetal calf serum, in the presence (activated) or absence (control) of 10 μg/ml of HIV-Tat protein.
After stimulation and treatment with various sources and concentrations of SOD, the U937 cells are harvested in a phosphate-buffered cold physiological saline, and counted. The total RNA is extracted by standard techniques (Chomczynski. P., 1987, Anal. Biochem. 162, 156), in 1 ml of TRIzol reagent (Life Technologies ≠15596), according to the manufacturer's instructions. After its extraction, the RNA is precipitated with isopropyl alcohol, and the pellets are washed in 70% ethanol and air dried. The dried pellets are resuspended in 50 μl of 0.5 mM EDTA, pH 8, and quantified by spectrophotometry. […]
The amplification program comprises: five cycles comprising 60 sec. at 92° C., 60 sec. at 58° C. and 60 sec. at 74° C., followed by 25 cycles comprising 30 sec. at 92° C., 60 sec. at 60° C. and 60 sec. at 74° C., and to finish, the temperature is kept at 74° C. for another 3 minutes. Positive PCR amplifications are then determined by an electrophoresis on 1.2% agarose gel in 0.5×TAE buffer. […]

[7] = test system: inflammation induced with carrageenans; assay: Rat model of inflammation induced with carrageenans; type: in vivo
[8] = test system: inflammation induced with adriamycin; assay: Rat model of inflammation induced with adriamycin; type: in vivo

| Molecule | anti-inflammatory activity (rank order of SODs) [7] | anti-inflammatory activity (rank order of SODs) [8] | also measured |
| --- | --- | --- | --- |
| CN1CC=C(c2ccccc2)CC1 [MPTP] | – | – | death of macrophages by apoptosis [1]: induce their death by apoptosis; production of TNF-α by macrophages [2]: stimulate the production of TNF-α |
| HSD1: bovine SOD (heterologous), Sigma, St Louis, Mo. | – | – | lifting of HIV-Tat protein-induced inhibition of Mn—SOD expression (endogenous SOD activity) [3]: can be lifted; expression of glutathione peroxidase (GPx), Mn—SOD and inducible NO synthase (iNOs) [4]: stimulate the expression |
| HuSOD: recombinant human Cu/Zn SOD, homologous comparator | – | – | Mn—SOD expression [5]: remains undetectable; lifting of HIV-Tat protein-induced inhibition of Mn—SOD expression (endogenous SOD activity) [3]: not lifted; Gpx transcription [6]: does not enable it |
| bovine Cu—SOD: Cu/Zn—SOD of bovine origin | Mn—SOD of E. coli>bovine Cu—SOD>human Cu—SOD>yeast Cu—SOD>plant Cu—SOD | bovine Cu—SOD>Mn—SOD of E. coli | – |
| human Cu—SOD: human Cu—SOD | Mn—SOD of E. coli>bovine Cu—SOD>human Cu—SOD>yeast Cu—SOD>plant Cu—SOD | – | – |
| rat Cu—SOD: rat (homologous) Cu—SOD | significant pro-inflammatory activity | totally inactive | – |
| β-amyloid | – | – | death of macrophages by apoptosis [1]: induce their death by apoptosis; production of TNF-α by macrophages [2]: stimulate the production of TNF-α |
| B1 | Mn—SOD of E. coli>bovine Cu—SOD>human Cu—SOD>yeast Cu—SOD>plant Cu—SOD | bovine Cu—SOD>Mn—SOD of E. coli | – |
| B2 | Mn—SOD of E. coli>bovine Cu—SOD>human Cu—SOD>yeast Cu—SOD>plant Cu—SOD | generates a pro-inflammatory response | – |
